By IC50 is commonly meant the point on the concentration scale where inhibition reaches its midpoint. A high value points to a need for much substance.

The target in the first assay is T1, FAS (Homo sapiens (Human), UniProt P49327).
T1 sequence (P49327 whole entry): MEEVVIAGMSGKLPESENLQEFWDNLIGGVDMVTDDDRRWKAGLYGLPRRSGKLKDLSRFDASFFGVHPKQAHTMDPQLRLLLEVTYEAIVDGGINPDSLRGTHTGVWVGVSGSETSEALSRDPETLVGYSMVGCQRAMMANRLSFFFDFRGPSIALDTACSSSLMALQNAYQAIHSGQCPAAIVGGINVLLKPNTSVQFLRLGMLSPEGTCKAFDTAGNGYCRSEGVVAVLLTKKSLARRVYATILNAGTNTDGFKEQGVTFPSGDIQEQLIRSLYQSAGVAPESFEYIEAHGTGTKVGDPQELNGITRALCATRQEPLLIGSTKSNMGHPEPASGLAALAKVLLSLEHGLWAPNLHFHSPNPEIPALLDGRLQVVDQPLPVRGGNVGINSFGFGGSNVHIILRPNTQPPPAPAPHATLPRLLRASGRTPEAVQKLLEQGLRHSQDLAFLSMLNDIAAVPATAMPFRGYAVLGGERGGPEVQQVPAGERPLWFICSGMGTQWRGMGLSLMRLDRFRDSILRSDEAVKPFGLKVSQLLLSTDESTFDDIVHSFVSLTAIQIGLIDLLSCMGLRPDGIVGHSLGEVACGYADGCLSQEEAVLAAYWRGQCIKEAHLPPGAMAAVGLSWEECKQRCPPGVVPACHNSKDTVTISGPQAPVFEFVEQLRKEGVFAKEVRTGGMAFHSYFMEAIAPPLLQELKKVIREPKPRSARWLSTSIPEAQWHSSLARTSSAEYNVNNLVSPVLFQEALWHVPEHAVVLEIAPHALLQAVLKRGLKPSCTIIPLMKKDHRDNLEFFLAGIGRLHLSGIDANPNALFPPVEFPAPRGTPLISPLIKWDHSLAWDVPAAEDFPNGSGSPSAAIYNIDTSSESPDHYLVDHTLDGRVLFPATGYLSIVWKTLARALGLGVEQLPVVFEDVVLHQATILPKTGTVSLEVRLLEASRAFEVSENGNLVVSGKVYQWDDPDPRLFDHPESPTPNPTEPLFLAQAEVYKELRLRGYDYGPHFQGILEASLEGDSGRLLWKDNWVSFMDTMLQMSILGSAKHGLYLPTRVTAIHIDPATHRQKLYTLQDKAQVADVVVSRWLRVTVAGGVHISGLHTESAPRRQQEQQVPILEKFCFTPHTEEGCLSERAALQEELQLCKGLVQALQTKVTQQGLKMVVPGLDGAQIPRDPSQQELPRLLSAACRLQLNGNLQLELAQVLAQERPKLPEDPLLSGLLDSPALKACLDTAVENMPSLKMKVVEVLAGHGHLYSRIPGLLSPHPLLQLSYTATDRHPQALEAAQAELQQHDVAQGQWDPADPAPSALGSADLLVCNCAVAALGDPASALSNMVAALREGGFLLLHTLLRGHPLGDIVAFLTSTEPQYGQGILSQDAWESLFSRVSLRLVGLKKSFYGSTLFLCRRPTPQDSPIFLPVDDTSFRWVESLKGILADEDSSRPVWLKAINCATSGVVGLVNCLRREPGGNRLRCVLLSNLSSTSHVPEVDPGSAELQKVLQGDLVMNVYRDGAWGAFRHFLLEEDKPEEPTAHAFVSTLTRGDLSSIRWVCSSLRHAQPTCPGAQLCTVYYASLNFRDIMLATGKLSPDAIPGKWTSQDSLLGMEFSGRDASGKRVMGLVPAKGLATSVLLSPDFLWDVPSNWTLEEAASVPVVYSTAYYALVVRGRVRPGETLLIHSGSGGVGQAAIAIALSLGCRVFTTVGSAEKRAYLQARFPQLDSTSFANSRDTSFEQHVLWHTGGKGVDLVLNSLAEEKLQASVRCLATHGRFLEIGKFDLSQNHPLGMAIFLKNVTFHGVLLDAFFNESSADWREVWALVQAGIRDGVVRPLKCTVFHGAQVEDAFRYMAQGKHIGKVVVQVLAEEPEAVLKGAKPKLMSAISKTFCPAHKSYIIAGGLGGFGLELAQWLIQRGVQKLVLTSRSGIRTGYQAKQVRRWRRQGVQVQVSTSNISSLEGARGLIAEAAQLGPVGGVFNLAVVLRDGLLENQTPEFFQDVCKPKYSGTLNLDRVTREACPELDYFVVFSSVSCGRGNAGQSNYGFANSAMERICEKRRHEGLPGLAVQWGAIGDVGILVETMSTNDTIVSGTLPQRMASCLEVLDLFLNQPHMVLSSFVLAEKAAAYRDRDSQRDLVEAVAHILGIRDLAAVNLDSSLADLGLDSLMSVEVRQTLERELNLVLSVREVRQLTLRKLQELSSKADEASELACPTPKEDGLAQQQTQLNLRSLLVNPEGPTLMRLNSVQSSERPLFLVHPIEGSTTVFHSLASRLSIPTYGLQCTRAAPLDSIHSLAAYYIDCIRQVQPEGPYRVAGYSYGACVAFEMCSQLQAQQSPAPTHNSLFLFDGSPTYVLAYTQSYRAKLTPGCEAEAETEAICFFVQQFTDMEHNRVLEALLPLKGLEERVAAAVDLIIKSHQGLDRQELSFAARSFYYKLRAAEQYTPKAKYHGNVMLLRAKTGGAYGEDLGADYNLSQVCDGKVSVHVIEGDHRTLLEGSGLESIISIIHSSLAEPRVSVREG
Experiment: not given
The settings on record: inhibition of FAS; tested by one of the two FAS assays; value from at least one experiment or the average of multiple experiments.
`Cn1nc(C[C@@H]2CCN(C(=O)C3CC3)C2)n(-c2ccc(-c3ccc4occc4c3)cc2)c1=O` [Example 7, 4-[4-(1-benzofuran-5-yl)phenyl]-5-{[(3S)-1-(cyclopropylcarbonyl)-3-pyrrolidinyl]methyl}-2-methyl-2,4-dihydro-3H-1,2,4-triazol-3-one] yielded an IC50 of 20 nM. In other words, the double-digit nanomolar range.

With `O=C(C1CC1)N1CC[C@@H](Cc2n[nH]c(=O)n2-c2ccc(-c3ccc4ccoc4c3)cc2)C1` [Example 14, 4-[4-(1-benzofuran-6-yl)phenyl]-5-{[(3S)-1-(cyclopropylcarbonyl)-3-pyrrolidinyl]methyl}-2,4-dihydro-3H-1,2,4-triazol-3-one], the IC50 worked out at 6 nM.

`Cn1cnc2cc(-c3ccc(-n4c(C[C@@H]5CCN(C(=O)C6CC6)C5)n[nH]c4=O)cc3)ccc21` [Example 23, 5-{[(3S)-1-(cyclopropylcarbonyl)-3-pyrrolidinyl]methyl}-4-[4-(1-methyl-1H-benzimidazol-5-yl)phenyl]-2,4-dihydro-3H-1,2,4-triazol-3-one] displayed an IC50 of 13 nM.

`O=C(C1CC1)N1CC[C@@H](Cc2n[nH]c(=O)n2-c2ccc(-c3ccc4c(c3)OCO4)cc2)C1` [Example 38, 4-[4-(1,3-benzodioxol-5-yl)phenyl]-5-{[(3S)-1-(cyclopropylcarbonyl)-3-pyrrolidinyl]methyl}-2,4-dihydro-3H-1,2,4-triazol-3-one] showed a half-inhibitory concentration (IC50) of 158 nM.

Molecule `Cc1cc(-c2ccc3cc[nH]c3c2)ccc1-n1c(C[C@@H]2CCN(C(=O)C3CC3)C2)n[nH]c1=O` [Example 42, 5-{[(3S)-1-(cyclopropylcarbonyl)-3-pyrrolidinyl]methyl}-4-[4-(1H-indol-6-yl)-2-methylphenyl]-2,4-dihydro-3H-1,2,4-triazol-3-one] returned an IC50 of 5 nM.

`O=C(C1CC1)N1CC(Cc2n[nH]c(=O)n2-c2ccc(-c3ccc4cc[nH]c4c3)cc2)C1` [Example 67, 5-{[1-(cyclopropylcarbonyl)-3-azetidinyl]methyl}-4-[4-(1H-indol-6-yl)phenyl]-2,4-dihydro-3H-1,2,4-triazol-3-one] showed an IC50 of 16 nM.

For `CN(C)Cc1ccc(-c2ccc(-n3c(C[C@@H]4CCN(C(=O)C5CC5)C4)n[nH]c3=O)cc2)cc1` [Example 95, 5-{[(3S)-1-(cyclopropylcarbonyl)-3-pyrrolidinyl]methyl}-4-{4′-[(dimethylamino)methyl]-4-biphenylyl}-2,4-dihydro-3H-1,2,4-triazol-3-one], the IC50 stood at 200 nM.

On to `COc1ccc(-c2ccc(-n3c(C[C@@H]4CCN(C(=O)C5CC5)C4)n[nH]c3=O)c(F)c2)cc1` [Example 116, 5-{[(3S)-1-(cyclopropylcarbonyl)-3-pyrrolidinyl]methyl}-4-[3-fluoro-4′-(methyloxy)-4-biphenylyl]-2,4-dihydro-3H-1,2,4-triazol-3-one], for which inhibition was half-maximal at 40 nM (IC50).

With `O=C(C1CC1)N1CC[C@@H](Cc2n[nH]c(=O)n2-c2ccc(-c3ccc4cnccc4c3)cc2F)C1` [Example 132, 5-{[(3S)-1-(cyclopropylcarbonyl)-3-pyrrolidinyl]methyl}-4-[2-fluoro-4-(6-isoquinolinyl)phenyl]-2,4-dihydro-3H-1,2,4-triazol-3-one], half-maximal inhibition (IC50) was put at 3 nM.

On to `CC(=O)Nc1ccc(-c2ccc(-n3c(C[C@@H]4CCN(C(=O)C5CC5)C4)n[nH]c3=O)c(F)c2)cc1` [Example 158, N-[4′-(3-{[(3S)-1-(cyclopropylcarbonyl)-3-pyrrolidinyl]methyl}-5-oxo-1,5-dihydro-4H-1,2,4-triazol-4-yl)-3′-fluoro-4-biphenylyl]acetamide], for which the IC50 was found to be 398 nM.

The next assay concerns the target T1, FAS. Description: biochemical.
Settings: not given
`N#Cc1ccc(-c2ccc(-n3c(C[C@@H]4CCN(C(=O)C5CC5)C4)n[nH]c3=O)cc2)cc1` [Example 4, 4′-(3-{[(3S)-1-(cyclopropylcarbonyl)-3-pyrrolidinyl]methyl}-5-oxo-1,5-dihydro-4H-1,2,4-triazol-4-yl)-4-biphenylcarbonitrile]: the IC50 turned out to be 126 nM.

The values are drawn from patent publication US8802864B2, “Triazolones as fatty acid synthase inhibitors” (GlaxoSmithKline LLC, priority 2010, dated 2014).
